Data set [1] is described as follows: Phase I studies: aplidine myotoxicity and L-carnitine as myoprotector. The data set is classed as in vivo, human. Particulars: in vivo. As for the experimental part: More generally, the invention involves the use of a muscle protector in conjunction with aplidine therapy. We have found in particular that carnitine is beneficial in treating myotoxicity that is associated with chemotherapy with the experimental drug aplidine. […] When L-carnitine 4.5 g/day was added to the therapy (at doses of 1.5 g three times daily), or 0.1 mg/kg (at doses of 0.033 mg 3 times daily) patients were able to tolerate doses of aplidine up to 6000 mcg/m 2 every second week. […] Therefore, muscle protectors such as L-carnitine is a useful myoprotector for patients being treated with aplidine or an aplidine analogue.
L-carnitine at a dose of 1.5 grams 3 times per day or 0.033 g/kg 3 times per day was started in all patients of study APL-A-003-98.

For data set [2], the system named is panel of 25 human tumor cell lines. The data set can be described thus: tumor protection by L-carnitine in panel of tumor cell lines. Format: cell-based. Particulars: initial results. Here is the method:
The possibility of tumor protection by L-carnitine was evaluated using a panel of 25 human tumor cell lines.

From patent US7507766B2, “Treatment of cancers” (Pharma Mar, S.A., priority 2000, dated 2009) come the findings set out here.

In the case of `C[N+](C)(C)C[C@H](O)CC(=O)[O-]` [L-carnitine, reference compound], in data set [1] (human), the “increase of aplidine RD by L-carnitine prophylaxis” value is 40%; the “only toxicity reported for L-carnitine” value was “grade 1 abdominal discomfort and diarrhea”. Further, in data set [1], the “L-carnitine dose below which it should not be decreased” value is on record as at least 3.5 grams per day, the “duration of beneficial effect (normal creatine kinase values)” value was “at least 13 weeks”, the “outcome in 11 patients receiving L-carnitine prophylaxis from the beginning” value is recorded as “just an asymptomatic G1 increase in CK” and the “tolerability of L-carnitine” value is “well tolerated”. Besides, the “effect of L-carnitine on the antitumor activity of aplidine” value in data set [2] is given as “lack of effect”.
